# Data as given in paper PMC9604483, “Crystal Structure of CYP3A4 Complexed with Fluorol Identifies the Substrate Access Channel as a High-Affinity Ligand Binding Site” (International Journal of Molecular Sciences, 2022).
# Like-named read-outs stand apart in the source and are kept apart here.
# Assays:
# T224A CYP3A4 [1] = target: T1, T224A CYP3A4 (Homo sapiens, UniProt P08684, T224A); test: Equilibrium fluorescence titrations of fluorol with CYP3A4; assay type: binding; settings: for Kd: read-out: Kd, fluorometric
# T1 construct: made in house
# T1 sequence (P08684 with tags, fused parts or gaps T224A): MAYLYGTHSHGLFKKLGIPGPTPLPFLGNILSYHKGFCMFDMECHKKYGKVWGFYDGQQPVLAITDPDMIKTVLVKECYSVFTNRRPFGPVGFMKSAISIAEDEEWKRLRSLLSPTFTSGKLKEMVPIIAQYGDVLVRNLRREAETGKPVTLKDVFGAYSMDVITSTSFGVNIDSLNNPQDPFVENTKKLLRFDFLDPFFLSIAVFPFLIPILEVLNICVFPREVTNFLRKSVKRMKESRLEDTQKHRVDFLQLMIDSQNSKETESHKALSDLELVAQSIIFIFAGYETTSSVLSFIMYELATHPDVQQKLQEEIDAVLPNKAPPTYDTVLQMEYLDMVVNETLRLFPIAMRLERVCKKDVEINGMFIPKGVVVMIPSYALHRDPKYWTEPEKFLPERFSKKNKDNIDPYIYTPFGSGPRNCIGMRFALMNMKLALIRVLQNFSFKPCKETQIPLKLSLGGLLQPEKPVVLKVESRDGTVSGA
# Text: (§1) Equilibrium fluorescence titrations were used as an alternative approach for Kd determination. One advantage of fluorol is a large Stokes shift (difference between the absorption and emission maxima; Figure S1B) and sensitivity to environment, as emission becomes more intense and blue-shifted when polarity of the medium decreases (Figure S1C). Moreover, spectral overlap between the emission band of fluorol and Q-bands of CYP3A4 enables fluorescence resonance energy transfer (FRET) to the heme. This process dominates during complex formation with CYP3A4, because emission is decreased rather than enhanced when fluorol transfers from an aqueous media to a more hydrophobic protein environment. One complication that we encountered during fluorescence measurements was a nonspecific decrease in emission, presumably due to adhesion of fluorol to plastic pipette tips. To overcome this problem, before each titration, small amounts of buffer were added to fluorol solution in 1–2 μL increments (8–10 additions; <2% of volume change) and mixed using the same low-retention pipette tip. When no further changes in fluorescence intensity were observed, the same tip was used for addition and mixing of CYP3A4 aliquots (Figure 4A). […] This means that the low-affinity site in T224A CYP3A4 is less solvated and/or lies closer to the heme.
# (§2) As a result, in GS8-bound CYP3A4, fluorol might still be able to bind to the channel, albeit in a different orientation (Figure S2C). […] Thus, regardless of what ligand is bound, only the low-affinity site was available for fluorol in both WT and T224A CYP3A4.
# (§3) Fluorescence measurements—Equilibrium fluorescence titrations were conducted on a Hitachi F-7000 fluorescence spectrophotometer at 23 °C in 50 mM phosphate buffer, pH 7.4, containing 0.6 mg/mL β-cyclodextrin. Fluorol solution (1 μM) was first titrated with small amounts of buffer using a low-retention plastic pipette tip until no further changes in fluorescence were detected (λex = 440 nm); then, the same tip was used for CYP3A4 additions (6 μM final concentration). […] CYP3A4-dependent changes in fluorescence intensity were plotted vs. CYP3A4 concentration, and Kd values were derived from nonlinear regression fittings.
# WT CYP3A4 [2] = target: T2, WT CYP3A4 (Homo sapiens, UniProt P08684); test: as above; assay type: binding
# T2 construct: made in house
# T2 sequence (P08684 with tags, fused parts or gaps): as the sequence (P08684 with tags, fused parts or gaps T224A) above, with A204T counted along it
# Text: as §1, §2, §3
# T224A CYP3A4 [3] = target: T1, T224A CYP3A4; test: Stopped-flow kinetics of CYP3A4-fluorol complex formation (fluorol emission decay); assay type: binding
# Protocol: (§4) During equilibrium titrations, fluorescence spectra were usually recorded 10–15 min after addition of CYP3A4, which could allow fluorol to adjust/change its initial binding position. To better understand the substrate/inhibitor effects, the kinetics of CYP3A4–fluorol complex formation were measured by monitoring decay of fluorol emission in a stopped-flow spectrophotometer. […] Fluorol binding to WT and T224A CYP3A4 was biphasic within the studied time interval (2 s). The rate constants for the fast and slow phases (kfast and kslow, respectively) determined for ligand-free and progesterone-bound CYP3A4 were virtually independent on fluorol concentration (Figure 5A–D). […] Likewise, kslow was elevated for ritonavir- and GS8-bound WT CYP3A4 but remained unchanged for the T224A mutant.
# (§5) Kinetics of CYP3A4–fluorol complex formation were measured in a SX.18MV stopped-flow apparatus (Applied Photophysics, Leatherhead, UK) at 23 °C in 50 mM phosphate buffer, pH 7.4, containing 0.6 mg/mL β-cyclodextrin. WT or T224A CYP3A4 (2 μM) was mixed with 0.25–4 μM fluorol solution prepared from 1–3 mM stocks in DMSO. Equal amounts of DMSO were added to the protein solutions to avoid buffer-related changes in fluorol emission. Fluorescence changes were monitored with λex of 455 nm and a 495 nm cutoff emission filter. […] Kinetics were analyzed using the Igor Pro software (WaveMetrics, Oswego, OR, USA).
# WT CYP3A4 [4] = target: T2, WT CYP3A4; test: as above; assay type: binding
# Protocol: as §4, §5
# [5] = Fluorol solubility/aggregation monitored by emission changes; assay type: physicochemical; settings: 50 mM potassium phosphate, pH 7.4; with or without 0.6 mg/mL β-cyclodextrin
# Protocol: In our working solution (50 mM potassium phosphate, pH 7.4), dependence of emission intensity on fluorol concentration was linear only within the 0.1–4 μM range (Figure S1A). Addition of 0.6 mg/mL β-cyclodextrin, reported to improve solubility of fluorol, made no difference. For consistency, β-cyclodextrin was included in the assay buffers, while the working concentration of fluorol was limited to 3 μM to avoid/minimize artefacts associated with fluorol aggregation.
# [6] = set-up: method as in PMID 18831537; settings: cited from earlier work
# CYP3A4 = CYP3A4 (Homo sapiens, UniProt P08684); set-up: method as in PMID 22194603; settings: prior study, cited from earlier work; for Kd: up to 60 μM fluorol
# Chain of CYP3A4 (P08684 whole entry): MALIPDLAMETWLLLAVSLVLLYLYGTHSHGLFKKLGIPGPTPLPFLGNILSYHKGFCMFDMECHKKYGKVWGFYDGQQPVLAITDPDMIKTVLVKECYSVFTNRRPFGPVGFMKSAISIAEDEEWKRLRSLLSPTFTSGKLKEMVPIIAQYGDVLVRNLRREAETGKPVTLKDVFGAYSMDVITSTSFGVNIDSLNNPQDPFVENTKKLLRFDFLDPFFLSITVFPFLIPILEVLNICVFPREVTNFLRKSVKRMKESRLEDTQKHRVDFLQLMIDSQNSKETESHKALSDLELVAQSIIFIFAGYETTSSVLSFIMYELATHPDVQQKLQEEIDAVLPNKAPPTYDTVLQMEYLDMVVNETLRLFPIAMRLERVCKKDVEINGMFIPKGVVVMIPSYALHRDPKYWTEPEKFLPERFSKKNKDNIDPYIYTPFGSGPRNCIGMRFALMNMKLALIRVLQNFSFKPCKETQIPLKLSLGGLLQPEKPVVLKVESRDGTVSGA
structure (smiles),measurement,setting,value
"CCCCNc1ccc2c3c(cccc13)C(=O)N(CCCC)C2=O [fluorol, 2-butyl-6-(butylamino)-1H-benzo[de]isoquinoline-1,3(2H)-dione]",Ligand-dependent decrease in emission change,T224A CYP3A4 [1]; GS8-bound T224A CYP3A4,7%
same,Kd,"T224A CYP3A4 [1]; T224A CYP3A4 in presence of 0.4 μM GS8, one-site model",1.6 ± 0.2 µM
same,Kd,"T224A CYP3A4 [1]; T224A CYP3A4 in presence of 0.4 μM RIT, one-site model",3.5 ± 0.3 µM
same,Kd,"T224A CYP3A4 [1]; T224A CYP3A4 in presence of 20 μM PRG, one-site model",1.8 ± 0.2 µM
same,Ligand-dependent increase in emission change,T224A CYP3A4 [1]; T224A CYP3A4 in the presence of progesterone,20%
same,Fluorescence decay in T224A relative to WT,"T224A CYP3A4 [1]; larger in T224A, equilibrium titration",~ 20%
same,Kd,"T224A CYP3A4 [1]; ligand-free T224A CYP3A4, only a low-affinity site detected",2 ± 0.3 µM
same,Ligand-dependent decrease in emission change,T224A CYP3A4 [1]; ritonavir-bound T224A CYP3A4,20%
same,Reduction of emission quenching,WT CYP3A4 [2]; GS8-bound WT CYP3A4 vs ligand-free,10%
same,Kd,"WT CYP3A4 [2]; WT CYP3A4 in presence of 0.4 μM GS8, one-site model, read-out: Kd, fluorometric",2.1 ± 0.3 µM
same,Kd,"WT CYP3A4 [2]; WT CYP3A4 in presence of 0.4 μM RIT, one-site model, read-out: Kd, fluorometric",4.8 ± 0.6 µM
same,Kd,"WT CYP3A4 [2]; WT CYP3A4 in presence of 20 μM PRG, one-site model, read-out: Kd, fluorometric",2.4 ± 0.2 µM
same,Kd at 1 μM,"WT CYP3A4 [2]; human, ligand-free WT CYP3A4 protein in buffer, pH 7.4, ligand-free WT CYP3A4, read-out: Kd, fluorometric, low-affinity site",2.4 ± 0.4 µM
same,Percentage of the fluorescence change due to binding of fluorol to the high-affinity site,WT CYP3A4 [2]; ligand-free WT CYP3A4,25%
same,Kd,"WT CYP3A4 [2]; ligand-free WT CYP3A4, 1 μM fluorol, 23 °C, pH 7.4, read-out: Kd, fluorometric, high-affinity site",0.15 ± 0.03 µM
same,Reduction of emission quenching,WT CYP3A4 [2]; ritonavir-bound WT CYP3A4 vs ligand-free,30%
same,"Amplitude of quenching, larger in T224A",T224A CYP3A4 [3]; ligand-free and progesterone/GS8-bound T224A CYP3A4,35–50%
same,"Amplitude of quenching, smaller in T224A",T224A CYP3A4 [3]; ritonavir-bound T224A CYP3A4,60%
same,Fluorol binding kinetics (phases),T224A CYP3A4 [3]; within 2 s,biphasic
same,Decrease in amplitude of quenching,"WT CYP3A4 [4]; WT, in the presence of GS8, equimolar CYP3A4 and fluorol",~ 20%
same,Increase in amplitude of quenching,"WT CYP3A4 [4]; WT, in the presence of progesterone, equimolar CYP3A4 and fluorol",~ 40%
same,Decrease in amplitude of quenching,"WT CYP3A4 [4]; WT, in the presence of ritonavir, equimolar CYP3A4 and fluorol",~ 20%
same,Fluorol binding kinetics (phases),WT CYP3A4 [4]; within 2 s,biphasic
same,Concentration range with linear dependence of emission intensity (no aggregation),[5],100 to 4000 nM
same,Aqueous solubility,[6],limited aqueous solubility
same,Kd,"CYP3A4; read-out: Kd, high-affinity site (peripheral area)",~3 µM
same,Kd,"CYP3A4; read-out: Kd, low-affinity area (catalytic cavity)",10 µM
same,Hill coefficient,CYP3A4,1.93
